Test results taken from patent US11466044B2 (WAYNE STATE UNIVERSITY, priority 2017, dated 2022).
≈ marks a conversion by molar mass, not a printed value. Like-named read-outs stand apart in the source and are kept apart here.

Columns and labels:
[1] = system: P aeruginosa; experiment: MIC by broth microdilution, P aeruginosa isolates; assay type: cell-based, Pseudomonas aeruginosa
[2] = system: cytosolic ribosome (human chimeric); assay type: biochemical
Description: (§1) The antiribosomal activity of these compounds was investigated with cell-free translation assays using both wild type bacterial ribosomes and hybrid ribosomes carrying eukaryotic decoding A sites enabling the prediction of selectivity.

[3] = system: mitochondrial ribosome (human chimeric); assay type: biochemical
Description: as §1

[4] = system: E coli wild type; experiment: MIC by broth microdilution, wild type E coli; assay type: cell-based; conditions: Escherichia coli
[5] = system: N. gonorrhoeae; experiment: Disk diffusion, N. gonorrhoeae; assay type: cell-based; conditions: Neisseria gonorrhoeae
[6] = system: M. abscessus; experiment: MIC by broth microdilution, M. abscessus; assay type: cell-based; conditions: Mycobacteroides abscessus
[7] = system: Acinetobacter baumannii pittii AG225; experiment: MIC by broth microdilution, Acinetobacter baumannii; assay type: cell-based; conditions: strain AG225 Acinetobacter baumannii pittii
[8] = system: A1555G mutant mitochondrial ribosome (human chimeric); experiment: in-vitro translation assay, human chimeric ribosomes, A1555G mutant mitochondrial decoding site; assay type: biochemical; conditions: human mitochondrial decoding site with A1555G point mutation; read-out: IC50 Mitoch. A1555G
Description: as §1

[9] = system: Klebsiella pneumonia AG215; experiment: MIC by broth microdilution, Klebsiella pneumonia; assay type: cell-based; conditions: Klebsiella pneumoniae; strain AG215 Klebsiella pneumonia; read-out: MIC AG215 K. pneumon
[10] = system: E coli carrying specific resistance determinants; experiment: MIC by broth microdilution, E coli carrying specific resistance determinants; assay type: cell-based; conditions: for MIC50: Escherichia coli

NC[C@@H]1O[C@H](O[C@H]2[C@@H](O)[C@H](O[C@@H]3[C@@H](O)[C@H](N)C[C@H](N)[C@H]3O[C@H]3O[C@H](CO)[C@@H](O)[C@H](O)[C@H]3N)O[C@@H]2CO)[C@H](N)[C@@H](O)[C@@H]1O [paromomycin, reference compound]
MIC50 ([1]; Pseudomonas aeruginosa, read-out: MIC50 P aeruginosa AG31): > 128 µg/mL
MIC50 ([1]; Pseudomonas aeruginosa, read-out: MIC50 P aeruginosa AG32): > 128 µg/mL
MIC50 ([1]; Pseudomonas aeruginosa, read-out: MIC50 P aeruginosa AG33): > 128 µg/mL
MIC50 ([1]; Pseudomonas aeruginosa, read-out: MIC50 P aeruginosa AG86): > 128 µg/mL
MIC ([1]; Pseudomonas aeruginosa, read-out: MIC AG031 P. aer. APH(3′)-II): > 128 µg/mL
MIC ([1]; Pseudomonas aeruginosa, read-out: MIC AG032 P. aer. APH(3′)-II): > 128 µg/mL
MIC50 P aeruginosa AG31 ([1]; strain AG31, Table 1 (Example 2)): >128 µg/mL
MIC50 P aeruginosa AG32 ([1]; strain AG32, Table 1 (Example 2)): >128 µg/mL
MIC50 P aeruginosa AG33 ([1]; strain AG33, Table 1 (Example 2)): >128 µg/mL
MIC50 P aeruginosa AG86 ([1]; strain AG86, Table 1 (Example 2)): >128 µg/mL
MIC ([1]; strain AG220 Pseudomonas aeruginosa ATCC27853, read-out: MIC AG220 P. aerugin): > 64 µg/mL
IC50 ([2]; cytosolic, Table 3 (Example 1), read-out: IC50 Cyt): 31 µM
IC50 ([2]; cytosolic, Table 3 (Example 2), read-out: IC50 Cyt): 31 µM
IC50 ([2]; cytosolic, Table 4 (Example 3), read-out: IC50 Cyt): 31 µM
IC50 ([2]; ribosomes with a human cytosolic decoding site, read-out: IC50 Cytosolic): 31 µM
IC50 ([3]; mitochondrial, Table 3 (Example 1), read-out: IC50 Mit): 140 µM
IC50 ([3]; mitochondrial, Table 3 (Example 2), read-out: IC50 Mit): 140 µM
IC50 ([3]; mitochondrial, Table 4 (Example 3), read-out: IC50 Mit): 140 µM
IC50 ([3]; ribosomes with a human mitochondrial decoding site, read-out: IC50 Mitoch.): 140 µM
MIC ([4]; AG006 wt, Table 2 (Example 1), read-out: MIC E coli AG006 wt): 1 to 2 µg/mL (≈ 1.62 to 3.25 µM)
MIC ([4]; AG102 wt, Table 2 (Example 1), read-out: MIC E coli AG102 wt): 1 µg/mL (≈ 1.62 µM)
MIC ([4]; AG160 wt, Table 2 (Example 1), read-out: MIC E coli AG160 wt): 2 to 4 µg/mL (≈ 3.25 to 6.5 µM)
MIC ([4]; ATCC25922, strain AG212 E. coli (ATCC25922), read-out: MIC AG212 E. coli): 2 to 4 µg/mL (≈ 3.25 to 6.5 µM)
MIC50 ([4]; BM13 (AG06) wt, Table 2A (Example 2), read-out: MIC50 E coli BM13 (AG06) wt): 2 to 4 µg/mL (≈ 3.25 to 6.5 µM)
MIC ([4]; E. coli strain pH430, WT, read-out: MIC pH430 WT): 1 to 2 µg/mL (≈ 1.62 to 3.25 µM)
MIC ([4]; WT, Table 3 (Example 1), read-out: MIC WT): 1 to 2 µg/mL (≈ 1.62 to 3.25 µM)
MIC ([4]; WT, Table 3 (Example 2), read-out: MIC WT): 1 to 2 µg/mL (≈ 1.62 to 3.25 µM)
MIC ([4]; WT, Table 4 (Example 3), read-out: MIC E. coli WT): 1 to 2 µg/mL (≈ 1.62 to 3.25 µM)
MIC ([4]; WT, Table 5 (Example 3), read-out: MIC E. coli WT): 1 to 2 µg/mL (≈ 1.62 to 3.25 µM)
MIC ([4]; clinical isolate AG001, WT, read-out: MIC AG001 E. coli WT): 2 µg/mL (≈ 3.25 µM)
MIC ([4]; clinical isolate AG001, Table 1 (Example 3), read-out: MIC E coli AG001): 16 to 32 µg/mL (≈ 26 to 52 µM)
MIC ([4]; clinical isolate AG003, Table 1 (Example 3), read-out: MIC E coli AG003): 8 to 16 µg/mL (≈ 13 to 26 µM)
MIC ([4]; clinical isolate AG055, WT, read-out: MIC AG055 E. coli WT): 2 µg/mL (≈ 3.25 µM)
MIC ([4]; clinical isolate AG055, Table 1 (Example 3), read-out: MIC E coli AG055): 8 µg/mL (≈ 13 µM)
MIC ([4]; clinical isolate AG160 WT, Table 2 (Example 4), read-out: MIC AG160 E. coli WT): 2 to 4 µg/mL (≈ 3.25 to 6.5 µM)
MIC ([4]; engineered strain pH430 WT, Table 2 (Example 4), read-out: MIC pH430 E. coli WT): 1 to 2 µg/mL (≈ 1.62 to 3.25 µM)
MIC50 ([4]; read-out: MIC50 E coli pH430 WT): 1 to 2 µg/mL (≈ 1.62 to 3.25 µM)
MIC ([4]; read-out: MIC E coli AG006 Wild type, AG006 Wild type, Table 2 (Example 3)): 2 µg/mL (≈ 3.25 µM)
MIC ([4]; read-out: MIC E coli AG104 Wild type, AG104 Wild type, Table 2 (Example 3)): 2 µg/mL (≈ 3.25 µM)
MIC50 ([4]; strain AG01, Table 1 (Example 1), read-out: MIC50 E coli AG01): 2 to 4 µg/mL (≈ 3.25 to 6.5 µM)
MIC50 ([4]; strain AG01, Table 1 (Example 2), read-out: MIC50 E coli AG01): 2 to 4 µg/mL (≈ 3.25 to 6.5 µM)
MIC50 ([4]; strain AG03, Table 1 (Example 1), read-out: MIC50 E coli AG03): 4 µg/mL (≈ 6.5 µM)
MIC50 ([4]; strain AG03, Table 1 (Example 2), read-out: MIC50 E coli AG03): 4 µg/mL (≈ 6.5 µM)
MIC50 ([4]; strain AG55, Table 1 (Example 1), read-out: MIC50 E coli AG55): 2 to 4 µg/mL (≈ 3.25 to 6.5 µM)
MIC50 ([4]; strain AG55, Table 1 (Example 2), read-out: MIC50 E coli AG55): 2 to 4 µg/mL (≈ 3.25 to 6.5 µM)
zone of inhibition at 25 nmol/disc [5]: 9 mm
MIC ([6]; ATCC19977, read-out: MIC M. abscessus ATCC 19977 WT): 8 µg/mL (≈ 13 µM)
MIC ([6]; read-out: MIC M. abscessus ATCC): 8 µg/mL (≈ 13 µM)
MIC ([6]; read-out: MIC M. abscessus Clin. Isol.): 32 µg/mL (≈ 52 µM)
MIC ([6]; read-out: MIC M. abscessus clinical isolate): 32 µg/mL (≈ 52 µM)
MIC ([6]; read-out: MIC M. abscessus engineered Δeis2): 4 µg/mL (≈ 6.5 µM)
MIC [7]: 2 µg/mL (≈ 3.25 µM)
IC50 [8]: 15 µM
MIC [9]: 1 µg/mL (≈ 1.62 µM)
MIC APH(3′)-II ([10]; APH(3′)-II, Table 3 (Example 2)): >64 µg/mL
MIC50 ([10]; read-out: MIC50 E coli AG07 AAC(3), AG07 AAC(3), Table 2A (Example 2)): 4 to 8 µg/mL (≈ 6.5 to 13 µM)
MIC50 ([10]; read-out: MIC50 E coli AG09 AAC(6′), AG09 AAC(6′), Table 2A (Example 2)): 8 to 16 µg/mL (≈ 13 to 26 µM)
MIC50 ([10]; read-out: MIC50 E coli AG036 ANT(4′,4″), AG036 ANT(4′,4″), Table 2A (Example 2)): 256 µg/mL (≈ 416 µM)
MIC50 ([10]; read-out: MIC50 E coli AG036 ANT(4′,4″), AG036 ANT(4′,4″), Table 2B (Example 2)): 32 to 64 µg/mL (≈ 52 to 104 µM)
MIC50 ([10]; read-out: MIC50 E coli AG037 APH(3′)-III, AG037 APH(3′)-III, Table 2B (Example 2)): > 128 µg/mL
MIC50 ([10]; read-out: MIC50 E coli AG037 APH(3′,5″), AG037 APH(3′,5″), Table 2A (Example 2)): > 256 µg/mL
MIC50 ([10]; read-out: MIC50 E coli AG103 ArmA, AG103 ArmA, Table 2A (Example 2)): 4 µg/mL (≈ 6.5 µM)
MIC50 ([10]; read-out: MIC50 E coli AG103 armA, AG103 armA, Table 2B (Example 2)): 2 µg/mL (≈ 3.25 µM)
MIC50 ([10]; read-out: MIC50 E coli AG105 AAC(2′), AG105 AAC(2′), Table 2A (Example 2)): 2 to 4 µg/mL (≈ 3.25 to 6.5 µM)
